ChEMBL document CHEMBL1201862, “PubChem BioAssay data set” (2004)
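All cell lines were grown in 96-well plates and treated with compound for 48 hours. GI50 marks 50% less growth.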 Activity calls are given as the source filed them. No stated cut-off is given here; in the data, active = GI50 up to about 1.1 µM and inactive = higher.

Assays:
Experiment in all cases: growth of human tumour cells (NCI), 48 h
[1] = test system: SNB-75
[2] = test system: SF-539
[3] = test system: OVCAR-5
[4] = test system: CCRF-CEM
[5] = test system: OVCAR-3
[6] = test system: OVCAR-4
[7] = test system: SF-268
[8] = test system: UO-31
[9] = test system: M19-MEL
[10] = test system: 786-0
[11] = test system: SN12C
[12] = test system: DMS-114
[13] = test system: NCI-H460
[14] = test system: HCT-116
[15] = test system: EKVX
[16] = test system: ACHN
[17] = test system: SK-MEL-28
[18] = test system: SNB-78
[19] = test system: OVCAR-8
[20] = test system: NCI-H522
[21] = test system: M14
[22] = test system: RPMI-8226
[23] = test system: Malme-3M
[24] = test system: K562
[25] = test system: COLO 205
[26] = test system: XF498
[27] = test system: TK-10
[28] = test system: SF-295
[29] = test system: HCT-15
[30] = test system: HT-29
[31] = test system: KM12
[32] = test system: SK-MEL-5
[33] = test system: DLD-1
[34] = test system: DMS-273
[35] = test system: CAKI-1
[36] = test system: LXFL 529
[37] = test system: IGROV-1
[38] = test system: A549
[39] = test system: HL-60
[40] = test system: SK-OV-3
[41] = test system: NCI-H23
[42] = test system: SK-MEL-2
[43] = test system: HCC 2998
[44] = test system: UACC-257
[45] = test system: MOLT-4
[46] = test system: U-251
[47] = test system: SNB-19
[48] = test system: SR
[49] = test system: SW-620
[50] = test system: LOX IMVI
[51] = test system: KM-20L2
[52] = test system: NCI-H226
[53] = test system: HOP-62
[54] = test system: UACC-62
[55] = test system: HOP-18
[56] = test system: HOP-92
[57] = test system: RXF 393
[58] = test system: A498
[59] = test system: MCF7
[60] = test system: NCI/ADR-RES

`CCCN(CCC)c1c([N+](=O)[O-])cc(C(=O)N(C)C)cc1[N+](=O)[O-]` was tested, and the GI50 [1] was 17 µM (inactive), the GI50 [2] was > 100 µM (inactive) and the GI50 [3] was > 100 µM (inactive). For the same compound, the GI50 [4] was 28.4 µM (inactive), the GI50 [5] was 75 µM (inactive) and the GI50 [6] was 15.5 µM (inactive). The GI50 [7] was > 100 µM (inactive), the GI50 [8] was 92.9 µM (inactive) and the GI50 [9] was 92 µM (inactive). For the same compound, the GI50 [10] was > 100 µM (inactive), the GI50 [11] was > 100 µM (inactive) and the GI50 [12] was 33.4 µM (inactive). For the same compound, the GI50 [13] was 47.3 µM (inactive), the GI50 [14] was 43.4 µM (inactive) and the GI50 [15] was 37.8 µM (inactive). The GI50 [16] was 16.4 µM (inactive), the GI50 [17] was > 100 µM (inactive) and the GI50 [18] was > 100 µM (inactive). The GI50 [19] was > 100 µM (inactive), the GI50 [20] was 62.1 µM (inactive) and the GI50 [21] was 96.6 µM (inactive). The GI50 [22] was 52.2 µM (inactive), the GI50 [23] was 52.6 µM (inactive) and the GI50 [24] was 19.2 µM (inactive). For the same compound, the GI50 [25] was 76.4 µM (inactive), the GI50 [26] was 54.7 µM (inactive) and the GI50 [27] was > 100 µM (inactive). For the same compound, the GI50 [28] was > 100 µM (inactive), the GI50 [29] was 40.4 µM and the GI50 [30] was > 100 µM (inactive). For the same compound, the GI50 [31] was > 100 µM (inactive), the GI50 [32] was 5.07 µM (inactive) and the GI50 [33] was > 100 µM (inactive). For the same compound, the GI50 [34] was 30.2 µM (inactive), the GI50 [35] was > 100 µM (inactive) and the GI50 [36] was > 100 µM (inactive). The GI50 [37] was 69.2 µM (inactive), the GI50 [38] was 51.5 µM (inactive) and the GI50 [39] was 15.6 µM (inactive). For the same compound, the GI50 [40] was > 100 µM (inactive), the GI50 [41] was 53.2 µM (inactive) and the GI50 [42] was > 100 µM (inactive). The GI50 [43] was > 100 µM (inactive), the GI50 [44] was 35.4 µM (inactive) and the GI50 [45] was 41 µM (inactive). For the same compound, the GI50 [46] was 86.5 µM (inactive).

`Cc1ccc(-n2cc(/C(N)=N/O)c3ccccc3c2=O)cc1` was tested, and the GI50 [47] was > 100 µM (inactive), the GI50 [48] was > 100 µM (inactive) and the GI50 [2] was > 100 µM (inactive). For the same compound, the GI50 [4] was > 100 µM (inactive), the GI50 [5] was > 100 µM (inactive) and the GI50 [49] was > 100 µM (inactive). For the same compound, the GI50 [7] was > 100 µM (inactive), the GI50 [50] was > 100 µM (inactive) and the GI50 [51] was > 100 µM (inactive). The GI50 [8] was > 100 µM (inactive), the GI50 [9] was > 100 µM (inactive) and the GI50 [52] was > 100 µM (inactive). The GI50 [10] was > 100 µM (inactive), the GI50 [11] was > 100 µM (inactive) and the GI50 [12] was > 100 µM (inactive). For the same compound, the GI50 [13] was > 100 µM (inactive), the GI50 [14] was > 100 µM (inactive) and the GI50 [15] was > 100 µM (inactive). The GI50 [16] was > 100 µM (inactive), the GI50 [17] was > 100 µM (inactive) and the GI50 [19] was > 100 µM (inactive). For the same compound, the GI50 [20] was > 100 µM (inactive), the GI50 [21] was > 100 µM (inactive) and the GI50 [22] was > 100 µM (inactive). For the same compound, the GI50 [23] was > 100 µM (inactive), the GI50 [24] was > 100 µM (inactive) and the GI50 [25] was > 100 µM (inactive). For the same compound, the GI50 [53] was > 100 µM (inactive), the GI50 [26] was > 100 µM (inactive) and the GI50 [54] was > 100 µM (inactive). The GI50 [27] was > 100 µM (inactive), the GI50 [28] was > 100 µM (inactive) and the GI50 [29] was > 100 µM. For the same compound, the GI50 [30] was > 100 µM (inactive), the GI50 [31] was > 100 µM (inactive) and the GI50 [32] was > 100 µM (inactive). For the same compound, the GI50 [34] was > 100 µM (inactive), the GI50 [36] was > 100 µM (inactive) and the GI50 [37] was > 100 µM (inactive). For the same compound, the GI50 [38] was > 100 µM (inactive), the GI50 [39] was > 100 µM (inactive) and the GI50 [40] was > 100 µM (inactive). The GI50 [41] was > 100 µM (inactive), the GI50 [43] was > 100 µM (inactive) and the GI50 [44] was > 100 µM (inactive). The GI50 [45] was > 100 µM (inactive) and the GI50 [46] was > 100 µM (inactive).

`O=C1c2cccc3cc([N+](=O)[O-])cc(c23)C(=O)N1CCNCCNCCNCCN1C(=O)c2cccc3cc([N+](=O)[O-])cc(c23)C1=O` was tested, and the GI50 [1] was 0.0108 µM (active), the GI50 [47] was < 0.001 µM (active) and the GI50 [48] was 0.01 µM (active). For the same compound, the GI50 [2] was 0.00547 µM (active), the GI50 [3] was 0.0111 µM (active) and the GI50 [4] was 0.00122 µM (active). The GI50 [5] was 0.109 µM (active), the GI50 [6] was 0.0117 µM (active) and the GI50 [49] was < 0.001 µM (active). The GI50 [7] was 0.00564 µM (active), the GI50 [51] was 0.01 µM (active) and the GI50 [8] was 0.033 µM (active). The GI50 [52] was 0.124 µM (active), the GI50 [10] was < 0.001 µM (active) and the GI50 [11] was 0.00251 µM (active). The GI50 [13] was < 0.001 µM (active), the GI50 [14] was < 0.001 µM (active) and the GI50 [15] was 0.112 µM (active). For the same compound, the GI50 [16] was 0.01 µM (active), the GI50 [17] was 0.0311 µM (active) and the GI50 [55] was 0.149 µM (active). The GI50 [18] was 0.0553 µM (active), the GI50 [19] was < 0.001 µM (active) and the GI50 [20] was 0.116 µM (active). For the same compound, the GI50 [21] was 0.0188 µM (active), the GI50 [22] was 0.01 µM (active) and the GI50 [23] was 0.111 µM (active). For the same compound, the GI50 [24] was < 0.001 µM (active), the GI50 [25] was 0.01 µM (active) and the GI50 [53] was 0.00143 µM (active). The GI50 [54] was 0.00322 µM (active), the GI50 [27] was 0.092 µM (active) and the GI50 [28] was < 0.001 µM (active). The GI50 [29] was 0.01 µM, the GI50 [56] was 0.00343 µM (active) and the GI50 [30] was < 0.001 µM (active). The GI50 [31] was < 0.001 µM (active), the GI50 [32] was 0.152 µM (active) and the GI50 [33] was < 0.001 µM (active). The GI50 [34] was < 0.001 µM (active), the GI50 [57] was 0.122 µM (active) and the GI50 [35] was < 0.001 µM (active). The GI50 [36] was 0.01 µM (active), the GI50 [37] was 0.01 µM (active) and the GI50 [38] was < 0.001 µM (active). The GI50 [39] was 0.01 µM (active), the GI50 [40] was 0.0212 µM (active) and the GI50 [41] was 0.00193 µM (active). For the same compound, the GI50 [42] was 0.00995 µM (active), the GI50 [43] was 0.01 µM (active) and the GI50 [58] was 0.0128 µM (active). The GI50 [44] was 0.0311 µM (active), the GI50 [45] was < 0.001 µM (active) and the GI50 [46] was 0.00198 µM (active).

For `O=C1Nc2ccccc2Nc2ccncc21`, the GI50 [1] was > 76 µM (inactive), the GI50 [47] was > 100 µM (inactive) and the GI50 [2] was > 100 µM (inactive). For the same compound, the GI50 [3] was > 100 µM (inactive), the GI50 [4] was > 100 µM (inactive) and the GI50 [5] was > 100 µM (inactive). For the same compound, the GI50 [6] was > 100 µM (inactive), the GI50 [49] was > 100 µM (inactive) and the GI50 [7] was > 100 µM (inactive). For the same compound, the GI50 [50] was > 100 µM (inactive), the GI50 [51] was > 100 µM (inactive) and the GI50 [8] was > 100 µM (inactive). The GI50 [9] was > 100 µM (inactive), the GI50 [52] was > 100 µM (inactive) and the GI50 [11] was > 31.6 µM (inactive). The GI50 [12] was > 100 µM (inactive), the GI50 [13] was > 100 µM (inactive) and the GI50 [14] was > 100 µM (inactive). For the same compound, the GI50 [15] was > 100 µM (inactive), the GI50 [17] was > 100 µM (inactive) and the GI50 [55] was > 100 µM (inactive). For the same compound, the GI50 [18] was > 100 µM (inactive), the GI50 [19] was > 100 µM (inactive) and the GI50 [20] was > 100 µM (inactive). The GI50 [22] was > 100 µM (inactive), the GI50 [23] was > 100 µM (inactive) and the GI50 [24] was > 100 µM (inactive). For the same compound, the GI50 [25] was > 100 µM (inactive), the GI50 [53] was > 100 µM (inactive) and the GI50 [59] was > 100 µM (inactive). The GI50 [54] was > 100 µM (inactive), the GI50 [28] was > 100 µM (inactive) and the GI50 [29] was > 100 µM. For the same compound, the GI50 [56] was > 100 µM (inactive), the GI50 [30] was > 100 µM (inactive) and the GI50 [31] was > 100 µM (inactive). The GI50 [32] was > 100 µM (inactive), the GI50 [33] was > 100 µM (inactive) and the GI50 [34] was > 100 µM (inactive). The GI50 [57] was > 100 µM (inactive), the GI50 [35] was > 100 µM (inactive) and the GI50 [37] was > 100 µM (inactive). For the same compound, the GI50 [60] was > 100 µM (inactive), the GI50 [38] was > 100 µM (inactive) and the GI50 [39] was > 100 µM (inactive). For the same compound, the GI50 [40] was > 100 µM (inactive), the GI50 [41] was > 100 µM (inactive) and the GI50 [42] was > 100 µM (inactive). For the same compound, the GI50 [43] was > 100 µM (inactive), the GI50 [58] was > 100 µM (inactive) and the GI50 [44] was > 100 µM (inactive). The GI50 [45] was > 100 µM (inactive) and the GI50 [46] was > 100 µM (inactive).
